{"source": "patent US20220175777A1", "about": "“Inhibitors of Multidrug Resistance Transporter P-Glycoprotein” (Southern Methodist University, priority 2014, published 2022)", "biological_target": "P-gp (Homo sapiens, UniProt P08183)", "sequence (P08183 whole entry)": "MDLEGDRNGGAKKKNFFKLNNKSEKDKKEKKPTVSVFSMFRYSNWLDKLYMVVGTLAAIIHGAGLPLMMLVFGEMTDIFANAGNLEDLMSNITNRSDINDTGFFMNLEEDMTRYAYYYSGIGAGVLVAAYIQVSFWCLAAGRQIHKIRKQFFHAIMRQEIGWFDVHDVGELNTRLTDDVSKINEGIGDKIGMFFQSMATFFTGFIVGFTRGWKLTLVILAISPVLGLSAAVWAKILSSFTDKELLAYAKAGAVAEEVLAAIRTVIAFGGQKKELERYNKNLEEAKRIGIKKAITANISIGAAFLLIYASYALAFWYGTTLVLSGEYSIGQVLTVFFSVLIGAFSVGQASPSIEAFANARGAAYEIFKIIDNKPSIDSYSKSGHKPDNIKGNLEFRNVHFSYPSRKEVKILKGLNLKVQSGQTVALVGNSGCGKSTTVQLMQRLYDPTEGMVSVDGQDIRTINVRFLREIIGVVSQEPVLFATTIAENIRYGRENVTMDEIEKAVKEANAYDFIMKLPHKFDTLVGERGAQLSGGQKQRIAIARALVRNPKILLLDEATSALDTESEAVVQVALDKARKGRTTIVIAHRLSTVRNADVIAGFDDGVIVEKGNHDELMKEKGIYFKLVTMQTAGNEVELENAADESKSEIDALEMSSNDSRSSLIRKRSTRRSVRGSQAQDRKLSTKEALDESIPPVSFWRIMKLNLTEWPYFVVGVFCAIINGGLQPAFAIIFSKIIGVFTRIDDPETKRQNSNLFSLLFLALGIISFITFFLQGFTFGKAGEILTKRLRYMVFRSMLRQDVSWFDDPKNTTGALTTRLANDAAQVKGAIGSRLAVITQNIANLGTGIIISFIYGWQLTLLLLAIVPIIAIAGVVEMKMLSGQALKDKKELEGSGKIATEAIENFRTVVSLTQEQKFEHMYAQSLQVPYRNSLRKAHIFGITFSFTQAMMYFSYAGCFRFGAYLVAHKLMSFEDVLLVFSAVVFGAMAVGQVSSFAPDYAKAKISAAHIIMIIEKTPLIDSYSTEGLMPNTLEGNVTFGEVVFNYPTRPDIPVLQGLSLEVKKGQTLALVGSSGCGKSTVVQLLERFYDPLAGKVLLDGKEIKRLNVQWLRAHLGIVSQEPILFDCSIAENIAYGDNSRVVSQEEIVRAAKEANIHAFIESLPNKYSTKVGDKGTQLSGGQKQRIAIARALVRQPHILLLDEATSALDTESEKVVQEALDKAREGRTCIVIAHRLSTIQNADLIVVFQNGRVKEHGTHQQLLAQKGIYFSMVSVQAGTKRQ", "procedure": "Stimulation of basal ATPase by 29-variants was used as an indicator that a compound may be a P-gp transport substrate. Effects on stimulated P-gp ATPase activity indicated whether a compound directly interfered with ATP usage by the protein (***, p<0.001; **, p<0.01; *, p<0.1; NS, not significant). Quantitative cellular accumulation of 29-variants was performed using LC-MS/MS and is presented as a ratio of the cellular amounts of 29-variants in the presence of P-gp inhibitor, tariquidar, divided by amounts accumulated in its absence. […] Binding of an ATP analog, SL-ATP, to P-gp was used to determine whether ATP binding to P-gp was affected by the 29-variants. Values+/−standard deviations are shown for at least three different P-gp preparations and three independent SL-ATP titration experiments. The values for SL-ATP binding in the presence of 29 were taken directly from Brewer et al. (2014).\nIntracellular accumulation of compound 29 variants. Cell accumulation assays for each of the 29 variants were performed as in reference^28 to more directly assess whether the compounds were indeed transport substrates for P-gp."}
{"smiles": "COc1cccc2c1C(=O)c1c(O)c3c(c(O)c1C2=O)C[C@@](O)(C(C)=O)C[C@@H]3O[C@H]1C[C@H](N)[C@H](O)[C@H](C)O1", "note": "[DNR, Daunorubicin, reference compound]", "values": [{"measurement": "Intracellular accumulation in the presence versus absence of TQR", "value": "very strong cellular accumulation"}]}
